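Compound exposure: 48 hours, 5 concentrations, 96-well plates. Abbreviation: GI50, concentration required for 50% inhibition of growth. TGI is the concentration that stops growth completely.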
Assays:
Assay in all cases: DTP human tumour cell line panel, 48 h
HCT-116 colon = system: HCT-116 colon
NCI-H226 lung = system: NCI-H226 lung
SN12C renal = system: SN12C renal
NCI-H522 lung = system: NCI-H522 lung
OVCAR-8 ovarian = system: OVCAR-8 ovarian
MOLT-4 leukemia = system: MOLT-4 leukemia
IGROV1 ovarian = system: IGROV1 ovarian
NCI-H23 lung = system: NCI-H23 lung
MDA-MB-231 breast = system: MDA-MB-231 breast
SK-MEL-2 melanoma = system: SK-MEL-2 melanoma
KM12 colon = system: KM12 colon
M14 melanoma = system: M14 melanoma
HCT-15 colon = system: HCT-15 colon
DU-145 prostate = system: DU-145 prostate
SNB-19 CNS = system: SNB-19 CNS
OVCAR-4 ovarian = system: OVCAR-4 ovarian
HT29 colon = system: HT29 colon
SNB-75 CNS = system: SNB-75 CNS
ACHN renal = system: ACHN renal
OVCAR-3 ovarian = system: OVCAR-3 ovarian
SF-539 CNS = system: SF-539 CNS
CAKI-1 renal = system: CAKI-1 renal
HOP-62 NSCLC = system: HOP-62 NSCLC
NCI-H460 lung = system: NCI-H460 lung
BT-549 breast = system: BT-549 breast
RXF 393 renal = system: RXF 393 renal
SF-295 CNS = system: SF-295 CNS
K-562 leukemia = system: K-562 leukemia
SK-OV-3 ovarian = system: SK-OV-3 ovarian
HOP-92 NSCLC = system: HOP-92 NSCLC
PC-3 prostate = system: PC-3 prostate
MDA-MB-435 = system: MDA-MB-435
UACC-257 melanoma = system: UACC-257 melanoma
A498 renal = system: A498 renal
TK-10 renal = system: TK-10 renal
UACC-62 melanoma = system: UACC-62 melanoma
U251 CNS = system: U251 CNS
786-0 renal = system: 786-0 renal
LOX IMVI melanoma = system: LOX IMVI melanoma
HCC-2998 colon = system: HCC-2998 colon
SK-MEL-5 melanoma = system: SK-MEL-5 melanoma
HS 578T breast = system: HS 578T breast
EKVX NSCLC = system: EKVX NSCLC
UO-31 renal = system: UO-31 renal
SF-268 CNS = system: SF-268 CNS
OVCAR-5 ovarian = system: OVCAR-5 ovarian
MDA-N = system: MDA-N
A549 NSCLC = system: A549 NSCLC
COLO 205 colon = system: COLO 205 colon
SK-MEL-28 melanoma = system: SK-MEL-28 melanoma
NCI/ADR-RES ovarian = system: NCI/ADR-RES ovarian
CCRF-CEM leukemia = system: CCRF-CEM leukemia
MCF7 breast = system: MCF7 breast
MALME-3M melanoma = system: MALME-3M melanoma
SR leukemia = system: SR leukemia
HL-60(TB) leukemia = system: HL-60(TB) leukemia
RPMI-8226 leukemia = system: RPMI-8226 leukemia
SW-620 colon = system: SW-620 colon
T-47D breast = system: T-47D breast

C=C1C(=O)O[C@H]2/C=C(/C)C3=CC(=O)[C@@](C)(C[C@@H](OC(=O)/C(C)=C\C)C12)O3 (some centres undefined)
TGI (HCT-116 colon): 1.11 µM | TGI (NCI-H226 lung): 11.1 µM | TGI (SN12C renal): 3.37 µM | TGI (NCI-H522 lung): 0.605 µM | TGI (OVCAR-8 ovarian): 3.94 µM | TGI (MOLT-4 leukemia): 6.01 µM | TGI (IGROV1 ovarian): 4.97 µM | TGI (NCI-H23 lung): 10.3 µM | TGI (MDA-MB-231 breast): 11.5 µM | TGI (SK-MEL-2 melanoma): 16.6 µM | TGI (KM12 colon): 9.5 µM | TGI (M14 melanoma): > 28.8 µM | TGI (HCT-15 colon): 1.45 µM | TGI (DU-145 prostate): 8.99 µM | TGI (SNB-19 CNS): 29.7 µM | TGI (OVCAR-4 ovarian): > 26.5 µM | TGI (HT29 colon): 1.21 µM | TGI (SNB-75 CNS): 23.9 µM | TGI (ACHN renal): 0.958 µM | GI50 (OVCAR-3 ovarian): 1.24 µM | TGI (OVCAR-3 ovarian): 5.04 µM | TGI (SF-539 CNS): 8.22 µM | TGI (CAKI-1 renal): 0.432 µM | TGI (HOP-62 NSCLC): > 100 µM | TGI (NCI-H460 lung): 11.8 µM | TGI (BT-549 breast): 3.11 µM | TGI (RXF 393 renal): 1.5 µM | TGI (SF-295 CNS): 29.3 µM | TGI (K-562 leukemia): 1.84 µM | TGI (SK-OV-3 ovarian): 26 µM | TGI (HOP-92 NSCLC): 2.07 µM | TGI (PC-3 prostate): 8.78 µM | TGI (MDA-MB-435): 6.02 µM | TGI (UACC-257 melanoma): 5.69 µM | TGI (A498 renal): > 41.4 µM | TGI (TK-10 renal): 1.6 µM | TGI (UACC-62 melanoma): 3.36 µM | TGI (U251 CNS): 9.48 µM | TGI (786-0 renal): 2.22 µM | TGI (LOX IMVI melanoma): 1.14 µM | TGI (HCC-2998 colon): 3.28 µM | TGI (SK-MEL-5 melanoma): > 35.3 µM | TGI (HS 578T breast): 57.1 µM | TGI (EKVX NSCLC): 6.23 µM | TGI (UO-31 renal): 3.56 µM | TGI (SF-268 CNS): > 46.5 µM | TGI (OVCAR-5 ovarian): 6.19 µM | TGI (MDA-N): 6.24 µM | TGI (A549 NSCLC): 17.8 µM

NCCN=C(Nc1ccccc1)Nc1ccccc1
TGI (HCT-116 colon): > 100 µM | TGI (NCI-H226 lung): > 100 µM | TGI (SN12C renal): > 100 µM | TGI (NCI-H522 lung): > 100 µM | TGI (OVCAR-8 ovarian): > 100 µM | TGI (MOLT-4 leukemia): > 100 µM | TGI (IGROV1 ovarian): > 100 µM | TGI (NCI-H23 lung): > 100 µM | TGI (MDA-MB-231 breast): > 100 µM | TGI (COLO 205 colon): > 100 µM | TGI (SK-MEL-28 melanoma): > 100 µM | TGI (SK-MEL-2 melanoma): > 100 µM | TGI (NCI/ADR-RES ovarian): > 100 µM | TGI (KM12 colon): > 100 µM | TGI (M14 melanoma): > 100 µM | TGI (HCT-15 colon): > 100 µM | TGI (DU-145 prostate): > 100 µM | TGI (CCRF-CEM leukemia): > 100 µM | TGI (SNB-19 CNS): > 100 µM | TGI (OVCAR-4 ovarian): > 100 µM | TGI (HT29 colon): > 100 µM | TGI (SNB-75 CNS): > 100 µM | TGI (OVCAR-3 ovarian): > 100 µM | TGI (MCF7 breast): > 100 µM | TGI (SF-539 CNS): > 100 µM | TGI (CAKI-1 renal): > 100 µM | TGI (HOP-62 NSCLC): > 100 µM | TGI (NCI-H460 lung): > 100 µM | TGI (BT-549 breast): > 100 µM | TGI (RXF 393 renal): > 100 µM | TGI (SF-295 CNS): > 100 µM | TGI (K-562 leukemia): > 100 µM | TGI (SK-OV-3 ovarian): > 100 µM | TGI (PC-3 prostate): > 100 µM | TGI (MDA-MB-435): > 100 µM | TGI (UACC-257 melanoma): > 100 µM | TGI (MALME-3M melanoma): > 100 µM | TGI (TK-10 renal): > 100 µM | TGI (UACC-62 melanoma): > 100 µM | TGI (U251 CNS): > 100 µM | TGI (786-0 renal): > 100 µM | TGI (LOX IMVI melanoma): > 100 µM | TGI (HCC-2998 colon): > 100 µM | TGI (SK-MEL-5 melanoma): > 100 µM | TGI (HS 578T breast): > 100 µM | TGI (EKVX NSCLC): > 100 µM | TGI (UO-31 renal): > 100 µM | TGI (SR leukemia): > 100 µM | TGI (SF-268 CNS): > 100 µM | TGI (HL-60(TB) leukemia): > 100 µM | TGI (RPMI-8226 leukemia): > 100 µM | TGI (MDA-N): > 100 µM | TGI (A549 NSCLC): > 100 µM | TGI (SW-620 colon): > 100 µM

NP(=O)(OCC1=CC(=O)c2ccccc2C1=O)N(CCBr)CCBr (centres undefined)
TGI (HCT-116 colon): > 45.1 µM | TGI (NCI-H226 lung): 25.8 µM | TGI (SN12C renal): 33.9 µM | TGI (NCI-H522 lung): 10.9 µM | TGI (OVCAR-8 ovarian): 37.2 µM | TGI (MOLT-4 leukemia): 10.8 µM | TGI (T-47D breast): 29.7 µM | TGI (IGROV1 ovarian): 38.3 µM | TGI (NCI-H23 lung): 14.2 µM | TGI (MDA-MB-231 breast): 27.2 µM | TGI (COLO 205 colon): > 21.1 µM | TGI (SK-MEL-28 melanoma): 11.7 µM | TGI (SK-MEL-2 melanoma): 25.3 µM | TGI (NCI/ADR-RES ovarian): > 73.4 µM | TGI (KM12 colon): 25 µM | TGI (HCT-15 colon): 20.1 µM | TGI (DU-145 prostate): 18.1 µM | TGI (CCRF-CEM leukemia): > 100 µM | TGI (SNB-19 CNS): > 55.1 µM | TGI (OVCAR-4 ovarian): 31.6 µM | TGI (HT29 colon): 34.9 µM | TGI (SNB-75 CNS): > 35.8 µM | TGI (ACHN renal): 15.7 µM | TGI (OVCAR-3 ovarian): > 25.6 µM | TGI (MCF7 breast): > 40.9 µM | TGI (SF-539 CNS): 18.7 µM | TGI (CAKI-1 renal): 8.1 µM | TGI (NCI-H460 lung): 16 µM | TGI (RXF 393 renal): 21.8 µM | TGI (SF-295 CNS): 25.2 µM | TGI (K-562 leukemia): > 100 µM | TGI (SK-OV-3 ovarian): 30.9 µM | TGI (HOP-92 NSCLC): 31.5 µM | TGI (PC-3 prostate): 46 µM | TGI (MDA-MB-435): 4.74 µM | TGI (UACC-257 melanoma): 4.21 µM | TGI (MALME-3M melanoma): 4.6 µM | TGI (A498 renal): 39.3 µM | TGI (TK-10 renal): 33.1 µM | TGI (UACC-62 melanoma): 5.3 µM | TGI (U251 CNS): 28.7 µM | TGI (786-0 renal): 28.6 µM | TGI (LOX IMVI melanoma): 29.1 µM | TGI (HCC-2998 colon): 34.3 µM | TGI (SK-MEL-5 melanoma): 3.21 µM | TGI (HS 578T breast): 90.7 µM | TGI (EKVX NSCLC): 34.6 µM | TGI (UO-31 renal): 24.1 µM | TGI (SR leukemia): 9.75 µM | TGI (SF-268 CNS): 26.7 µM | TGI (HL-60(TB) leukemia): > 100 µM | TGI (OVCAR-5 ovarian): 45.1 µM | TGI (RPMI-8226 leukemia): > 67.3 µM | TGI (MDA-N): 3.66 µM | TGI (A549 NSCLC): 26.5 µM | TGI (SW-620 colon): > 34.2 µM

— PubChem BioAssay (NCI)
